Reference: patent EP1803452A1, “ESTER DERIVATIVE AND PHARMACEUTICAL USE THEREOF” (Japan Tobacco, Inc., priority 2004, dated 2006)

What was measured:
[1] = Metabolic stability test in liver S9; format: in vitro ADME; conditions: pH 7.4, human liver S9 2 mg protein/mL, LC/MS; for remaining at 10 min: unchanged form after 10 minutes at 37°C, read-out: Remaining rate in human liver S9 (%/10min); for remaining at 1 h: unchanged form after 60 minutes at 37°C, read-out: Remaining rate in human liver S9 (%/60min)
Description: Human liver S9 (final concentration: 2 mg protein/mL), was suspended in 100 mM potassium phosphate buffer (pH 7.4, containing β-nicotinamide adenine dinucleotide phosphate: 1.3 mM, D-glucose-6- phosphate: 3.3 mM, magnesium chloride: 3.3 mM, glucose-6-phosphate dehydrogenase:0.4 U/mL). The suspension was mixed with a solution of a sample dissolved in DMSO. The solution was incubated at 37°C for 0, 10 and 60 minutes, and an acetonitrile containing formic acid (final concentration: 0.1%) was added thereto. The solutions were centrifuged, and the concentration of the sample (unchanged form) in the supernatant was determined by high performance liquid chromatography/mass spectrometry (LC/MS). Based on the data obtained, remaining rate (%) was calculated according to the following equation. Remaining rate(%) = amount of sample 0,10, or 60 minutes after [formula] incubation/amount of sample at zero time after incubation × 100 [formula]
(§1) With respect to the compounds obtained in Working Examples according to the present invention (Compounds 1-1 to 1-115, 2-1, 3-1, 3-2, and 4-1 to 4-4), the results of the remaining rate in human liver S9 and plasma are shown in Tables 28 to 32.

[2] = Metabolic stability test in plasma; format: in vitro ADME, human; conditions: LC/MS; for remaining at 10 min: unchanged form after 10 minutes at 37°C in human plasma, read-out: Remaining rate in human plasma (%/10min); for remaining at 1 h: unchanged form after 60 minutes at 37°C in human plasma, read-out: Remaining rate in human plasma (%/60min)
Description: A sample dissolved in DMSO was added to plasma of human or animal species (mouse and hamster). The solutions were incubated at 37°C for 0, 10 and 60 minutes, and acetonitrile containing formic acid (final concentration: 0.1%) was added thereto. The solutions were centrifuged, and the concentration of the sample (unchanged form) in the supernatant was determined by high performance liquid chromatography/mass spectrometry (LC/MS). Based on the data obtained, the remaining rate (%) was calculated according to the following equation. Remaining rate(%) = amount of sample 0,10, or 60 minutes after incubation/amount of sample at zero time after incubation × 100 [formula]
as §1

[3] = Stability test in buffer (pH 7.4); format: physicochemical; conditions: phosphate buffer/acetonitrile 7:3, 100 mM potassium phosphate buffer (pH 7.4) and acetonitrile 7:3 (v/v), LC/MS; for remaining at 10 min: 10 minutes at 37°C, read-out: Buf. remaining rate (%/10min); for remaining at 1 h: 60 minutes at 37°C, read-out: Buf. remaining rate (%/60min)
Description: In the tables, Buf. remaining rate was determined by stability test in buffer (pH 7.4) as described below. A sample dissolved in DMSO was mixed with a mixed solution of 100 mM potassium phosphate buffer and acetonitrile in the ratio of 7:3 (v/v). The mixture was incubated at 37°C for 0, 10, and 60 minutes, and acetonitrile containing formic acid (final concentration: 0.1%) was added thereto. The solution was centrifuged, and the concentration of the sample (unchanged form) in the supernatant was determined by high performance liquid chromatography/mass spectrometry (LC/MS). Based on the data obtained, Buf. remaining rate (%) was calculated according to the following equation. Buf.remaining rate(%) = amount of sample 0,10, or 60 minutes after incubation/amount of sample at zero time after incubation × 100 [formula]

Row | remaining at 10 min [1] | remaining at 1 h [1] | remaining at 10 min [2] | remaining at 1 h [2] | remaining at 10 min [3] | remaining at 1 h [3] | Compound
1 | 10% | 6% | 9% | 4% | 95% | 95% | CN(C)C(=O)c1cc(CCCC(=O)Oc2ccc(C(=O)OCc3ccccc3)cc2)ccc1NC(=O)c1ccccc1-c1ccc(C(F)(F)F)cc1 [Compound 1-24, 4-(4-{3-dimethylcarbamoyl-4-[(4'-trifluoromethylbiphenyl-2-carbonyl)amino]phenyl}butyryloxy)benzoic acid benzyl ester]
2 | 0% | 0% | 10% | 0% | 100% | 103% | COC(=O)c1ccc(OC(=O)CCCc2ccc(NC(=O)c3ccccc3-c3ccc(C(F)(F)F)cc3)c(C(=O)N(C)C)c2)c(OC)c1 [Compound 1-12, 4-(4-{3-dimethylcarbamoyl-4-[(4'-trifluoromethylbiphenyl-2-carbonyl)amino]phenyl}butyryloxy)-3-methoxybenzoic acid methyl ester]
3 | 0% | 0% | 0% | 0% | 99% | 99% | COC(=O)c1ccc(OC(=O)CCCc2ccc(NC(=O)c3ccncc3-c3ccc(C(F)(F)F)cc3)c(C(=O)N(C)C)c2)cc1 [Compound 1-30, 4-[4-(3-dimethylcarbamoyl-4-{[3-(4-trifluoromethylphenyl)pyridine-4-carbonyl]amino}phenyl)butyryloxy]benzoic acid methyl ester]
4 | 7% | 0% | 50% | 0% | 102% | 103% | CN(C)C(=O)c1cc(CCCC(=O)Oc2ccc(C(=O)OCCCOCc3ccccc3)cc2)ccc1NC(=O)c1ccccc1-c1ccc(C(F)(F)F)cc1 [Compound 1-90, 4-[4-(3-dimethylcarbamoyl-4-{(4'-trifluoromethylbiphenyl-2-carbonyl)amino}phenyl)butyryloxy]benzoic acid 3-benzyloxypropyl ester]
5 | 0% | 0% | 8% | 0% | 96% | 98% | CC(=O)c1ccc(OC(=O)CCCc2ccc(NC(=O)c3ccccc3-c3ccc(C(F)(F)F)cc3)c(C(=O)N(C)C)c2)cc1 [Compound 1-22, 4-(3-dimethylcarbamoyl-4-[(4'-trifluoromethylbiphenyl-2-carbonyl)amino]phenyl}butyric acid 4-acetylphenyl ester]
6 | 13% | 0% | 49% | 0% | 98% | 99% | CC(OC(=O)c1ccc(OC(=O)CCCc2ccc(NC(=O)c3ccccc3-c3ccc(C(F)(F)F)cc3)c(C(=O)N(C)C)c2)cc1)c1ccccc1 (stereo not drawn) [Compound 1-106, 4-[4-(3-dimethylcarbamoyl-4-{(4'-trifluoromethylbiphenyl-2-carbonyl)amino}phenyl)butyryloxy]benzoic acid 1-phenylethyl ester]
7 | 2% | 0% | 63% | 6% | 98% | 102% | COC(=O)c1ccc(OC(=O)C2CCN(c3ccc(NC(=O)c4ccccc4-c4ccc(C(F)(F)F)cc4)c(C(=O)N(C)C)c3)CC2)cc1 [Compound 3-1, 1-(3-dimethylcarbamoyl-4-[(4'-trifluoromethylbiphenyl-2-carbonyl)amino]phenyl}piperidine-4-carboxylic acid 4-methoxycarbonylphenyl ester]
8 | 4% | 1% | 51% | 2% | 99% | 97% | Cc1ccc(C(=O)Nc2ccc(CCCC(=O)Oc3ccc(C(=O)OC(C)C)cc3)cc2C(=O)N(C)C)c(-c2ccc(C(F)(F)F)cc2)n1 [Compound 1-81, 4-[4-(3-dimethylcarbamoyl-4-{[6-methyl-2-(4-trifluoromethylphenyl)pyridine-3-carbonyl]amino}phenyl)butyryloxy]benzoic acid isopropyl ester]
9 | 0% | 0% | 85% | 40% | 98% | 98% | CC(C)n1nnc(-c2ccc(OC(=O)CCCc3ccc(NC(=O)c4ccccc4-c4ccc(C(F)(F)F)cc4)c(C(=O)N(C)C)c3)cc2)n1 [Compound 1-115, 4-(3-dimethylcarbamoyl-4-{(4'-trifluoromethylbiphenyl-2-carbonyl)amino}phenyl)butyric acid 4-(2-isopropyl-2H-tetrazol-5-yl)phenyl ester]
10 | 1% | 0% | 21% | 0% | 99% | 101% | CN(C)C(=O)c1cc(CCCC(=O)Oc2ccc(C(=O)OCc3ccncc3)cc2)ccc1NC(=O)c1ccccc1-c1ccc(C(F)(F)F)cc1 [Compound 1-84, 4-[4-(3-dimethylcarbamoyl-4-{(4'-trifluoromethylbiphenyl-2-carbonyl)amino}phenyl)butyryloxy]benzoic acid pyridin-4-ylmethyl ester]
11 | 0% | 0% | 0% | 0% | 102% | 99% | COC(=O)c1ccc(OC(=O)CCCc2ccc(NC(=O)c3ccccc3-c3ccc(C(F)(F)F)cc3)c(C(=O)N(C)C)c2)c(C(F)(F)F)c1 [Compound 1-20, 4-(4-{3-dimethylcarbamoyl-4-[(4'-trifluoromethylbiphenyl-2-carbonyl)amino]phenyl}butyryloxy)-3-trifluoromethylbenzoic acid methyl ester]
12 | 5% | 2% | 0% | 0% | 98% | 104% | COC(=O)c1cc(OC)c(OC(=O)CCCc2ccc(NC(=O)c3ccc(C)nc3-c3ccc(C(F)(F)F)cc3)c(C(=O)N(C)C)c2)c(OC)c1 [Compound 1-39, 4-[4-(3-dimethylcarbamoyl-4-{[6-methyl-2-(4-trifluoromethylphenyl)pyridine-3-carbonyl]amino}phenyl)butyryloxy]-3,5-dimethoxybenzoic acid methyl ester]
13 | 21% | 4% | 98% | 93% | 100% | 101% | COC(=O)c1cc(C)c(OC(=O)CCCc2ccc(NC(=O)c3ccccc3-c3ccc(C(F)(F)F)cc3)c(C(=O)N(C)C)c2)c(C)c1 [Compound 1-64, 4-[4-(3-dimethylcarbamoyl-4-{(4'-trifluoromethylbiphenyl-2-carbonyl)amino}phenyl)butyryloxy]-3,5-dimethylbenzoic acid methyl ester]
14 | 1% | 0% | 0% | 0% | 101% | 102% | COC(=O)c1ccc(OC(=O)CCCc2ccc(NC(=O)c3ccccc3-c3ccc(C(=O)OC)cc3)c(C(=O)N(C)C)c2)cc1 [Compound 4-3, 2'-{2-dimethylcarbamoyl-4-[3-(4-methoxycarbonylphenoxycarbonyl)propyl]phenylcarbamoyl}biphenyl-4-carboxylic acid methyl ester]
